# Source: patent publication US10993933B2, “Oral dosage forms of bendamustine” (ASTELLAS DEUTSCHLAND GMBH, priority 2010, dated 2021)
# Marks after values point to notes of the source that are not given here.
# Assays:
# [1] = Phase 1 crossover study, plasma pharmacokinetics after oral and i.v. bendamustine (Example 8); conditions: for AUCinf after oral administration as % of AUCinf after intravenous administration: 90% CI M3: 76%, 98%, M4: 77%, 102%
# Experimental: An open label, randomized two-way crossover study to assess the absolute bioavailability of oral bendamustine in patients with cancer was conducted to assess the absolute bioavailability of bendamustine administered as an oral formulation (example 2). Besides assessing the pharmacokinetics of bendamustine in plasma following oral and i.v. administration, a further objective was to evaluate the safety and tolerability of bendamustine following i.v. and especially oral administration of the formulation of example 2.
# 14 patients who were suffering from multiple myeloma, B-cell type chronic lymphocytic leukemia or advanced indolent non-Hodgkin's lymphoma were enrolled and were treated with bendamustine. […] After signing the informed consent form and following the screening period (days −21 to −2), eligible patients were assigned a patient number which was specific for each study site. Patients were randomized to receive one of the following on day 1 followed by the other on day 8: • a single oral dose of 110.2 mg (2×55.1 mg) bendamustine HCl • a single intravenous dose of 100 mg bendamustine HCl
# Bendamustine was provided a) orally as capsules, a LFHC formulation (liquid-filled, hard-shell capsule) and b) intravenously as a solution after reconstituting a powder for the preparation of a solution for injection. The LFHC formulation (per capsule) was prepared from 55.1 mg bendamustine hydrochloride, 1.2 mg methylparaben, 0.12 mg […], 0.12 mg butylated hydroxytoluene, 10.9 mg ethanol and 532.56 mg CREMOPHOR RH40. The vial with powder for concentrate for solution was the marketed product in Germany (RIBOMUSTINE) which contains per vial 100 mg of bendamustine hydrochloride and mannitol as an excipient. This product was reconstituted with water for injection to a final concentration of 2.5 mg/ml of bendamustine HCl and was further diluted with 0.9% NaCl until about 500 ml before administration to the patient, in accordance with the instructions of the package insert.
# Patients were admitted to the study site for 2 periods; days −1 to 2 (period 1) and days 7 to 9 (period 2). A total of 12 patients was to be randomized to receive treatment. Six patients were to receive treatment with a single oral dose of 110.2 mg (2×55.1 mg) bendamustine HCl (day 1) followed by a single intravenous dose of 100 mg bendamustine HCl (day 8) while 6 other patients were to receive treatment in the alternate order. Patients underwent a washout period of at least 7 days between treatments.
# After oral and intravenous administration of bendamustine the concentration of bendamustine, as well as that of the active metabolites of bendamustine (M3 and M4), were determined in plasma and urine samples on day 1 and day 8. Patients returned to the study site for an end-of-study visit 7 to 14 days after completion of the second treatment period, or after early discharge/withdrawal. Subsequently the pharmacokinetic parameters of bendamustine and its metabolites were calculated.
# [2] = Phase 1 crossover study, urine pharmacokinetics (Example 8); assay type: in vivo, human; conditions: for percentage of the dose excreted in urine as metabolite: oral administration
# Source text: Urine pharmacokinetic parameters of bendamustine, M3 and M4 are presented in Table 27, Table 28 and Table 29, respectively. The percentage of the dose excreted in urine unchanged was low (2.6% and 2.1% for oral and intravenous bendamustine, respectively).
# [3] = Stability of an aqueous solution of bendamustine as a function of pH; conditions: pH values higher than about 5
# [4] = Phase 1 crossover study, safety and tolerability (Example 8); assay type: in vivo, human
# [5] = M3 in plasma, Bendamustine HCl 100 mg intravenously, mean, n=11
# [6] = M3 in plasma, Bendamustine HCl 110.2 mg orally, mean, n=11
# [7] = M3 in urine, Bendamustine HCl 100 mg intravenously, mean, n=11
# [8] = M3 in urine, Bendamustine HCl 100 mg intravenously, median, n=11
# [9] = M3 in urine, Bendamustine HCl 100 mg intravenously, min-max, n=11
# [10] = M3 in urine, Bendamustine HCl 110.2 mg orally, mean, n=10
# [11] = M3 in urine, Bendamustine HCl 110.2 mg orally, median, n=10
# [12] = M3 in urine, Bendamustine HCl 110.2 mg orally, min-max, n=10
# [13] = M4 in plasma, Bendamustine HCl 100 mg intravenously, mean, n=11
# [14] = M4 in plasma, Bendamustine HCl 110.2 mg orally, mean, n=11
# [15] = M4 in urine, Bendamustine HCl 100 mg intravenously, mean, n=11
# [16] = M4 in urine, Bendamustine HCl 100 mg intravenously, median, n=11
# [17] = M4 in urine, Bendamustine HCl 100 mg intravenously, min-max, n=11
# [18] = M4 in urine, Bendamustine HCl 110.2 mg orally, mean, n=10
# [19] = M4 in urine, Bendamustine HCl 110.2 mg orally, median, n=10
# [20] = M4 in urine, Bendamustine HCl 110.2 mg orally, min-max, n=10
# [21] = bendamustine in urine, Bendamustine HCl 100 mg intravenously, mean, n=11
# [22] = bendamustine in urine, Bendamustine HCl 100 mg intravenously, median, n=11
# [23] = bendamustine in urine, Bendamustine HCl 100 mg intravenously, min-max, n=11
# [24] = bendamustine in urine, Bendamustine HCl 110.2 mg orally, mean, n=11
# [25] = bendamustine in urine, Bendamustine HCl 110.2 mg orally, median, n=11
# [26] = bendamustine in urine, Bendamustine HCl 110.2 mg orally, min-max, n=11
compound,measurement,setting,value
"Cn1c(C(O)CCC(=O)O)nc2cc(N(CCCl)CCCl)ccc21 (stereo not drawn) [Batch M3, γ-hydroxybendamustine]",AUCinf,[1]; [5],372 ng·h/mL
same,AUClast,[1]; [5],370 ng·h/mL
same,Cmax,[1]; [5],344 ng/mL
same,t1/2,[1]; [5],43.6 min
same,tmax,[1]; [5],0.823 h
same,AUCinf,[1]; [6],369 ng·h/mL
same,AUClast,[1]; [6],367 ng·h/mL
same,Cmax,[1]; [6],243 ng/mL
same,t1/2,[1]; [6],38.6 min
same,tmax,[1]; [6],1.27 h
same,Mean AUCinf of bendamustine relative to that of the metabolite (times higher),"[1]; patients, oral administration",10.6 times
same,exposure relative to that of bendamustine,"[1]; patients, oral administration",approximately 9%
same,AUCinf after oral administration as % of AUCinf after intravenous administration,[1]; patients,86%
same,% Aeinf,[2]; [7],0.459%
same,% Aelast,[2]; [7],0.457%
same,Aeinf,[2]; [7],0.435 mg
same,Aelast,[2]; [7],0.433 mg
same,CLR,[2]; [7],1.29 L/h
same,% Aeinf,[2]; [8],0.354%
same,% Aelast,[2]; [8],0.353%
same,Aeinf,[2]; [8],0.336 mg
same,Aelast,[2]; [8],0.334 mg
same,CLR,[2]; [8],0.856 L/h
same,% Aeinf,[2]; [9],0.018-1.6%
same,% Aelast,[2]; [9],0.018-1.6%
same,Aeinf,[2]; [9],0.017 to 1.6 mg
same,Aelast,[2]; [9],0.017 to 1.5 mg
same,CLR,[2]; [9],0.082 to 5.2 L/h
same,% Aeinf,[2]; [10],0.611%
same,% Aelast,[2]; [10],0.61%
same,Aeinf,[2]; [10],0.636 mg
same,Aelast,[2]; [10],0.635 mg
same,CLR,[2]; [10],2.14 L/h
same,% Aeinf,[2]; [11],0.537%
same,% Aelast,[2]; [11],0.553%
same,Aeinf,[2]; [11],0.558 mg
same,Aelast,[2]; [11],0.576 mg
same,CLR,[2]; [11],1.49 L/h
same,% Aeinf,[2]; [12],0.13-1.5%
same,% Aelast,[2]; [12],0.12-1.6%
same,Aeinf,[2]; [12],0.13 to 1.6 mg
same,Aelast,[2]; [12],0.13 to 1.7 mg
same,CLR,[2]; [12],0.45 to 7.4 L/h
same,percentage of the dose excreted in urine as metabolite,[2]; patients,0.6%
"O=C(O)CCCc1nc2cc(N(CCCl)CCCl)ccc2[nH]1 [Batch M4, N-desmethylbendamustine]",AUCinf,[1]; [13],42.5 ng·h/mL
same,AUClast,[1]; [13],40.8 ng·h/mL
same,Cmax,[1]; [13],33.6 ng/mL
same,t1/2,[1]; [13],32.6 min
same,tmax,[1]; [13],0.935 h
same,AUCinf,[1]; [14],44.4 ng·h/mL
same,AUClast,[1]; [14],42.8 ng·h/mL
same,Cmax,[1]; [14],26.9 ng/mL
same,t1/2,[1]; [14],30.9 min
same,tmax,[1]; [14],1.325 h
same,Mean AUCinf of bendamustine relative to that of the metabolite (times higher),"[1]; patients, oral administration",88 times
same,exposure relative to that of bendamustine,"[1]; patients, oral administration",~1%
same,AUCinf after oral administration as % of AUCinf after intravenous administration,[1]; patients,88%
same,% Aeinf,[2]; [15],0.081%
same,% Aelast,[2]; [15],0.086%
same,Aeinf,[2]; [15],0.071 mg
same,Aelast,[2]; [15],0.075 mg
same,CLR,[2]; [15],1.74 L/h
same,% Aeinf,[2]; [16],0.045%
same,% Aelast,[2]; [16],0.043%
same,Aeinf,[2]; [16],0.039 mg
same,Aelast,[2]; [16],0.038 mg
same,CLR,[2]; [16],1.66 L/h
same,% Aeinf,[2]; [17],0.0039-0.17%
same,% Aelast,[2]; [17],0.0028-0.21%
same,Aeinf,[2]; [17],0.0034 to 0.15 mg
same,Aelast,[2]; [17],0.0025 to 0.18 mg
same,CLR,[2]; [17],0.18 to 5.3 L/h
same,% Aeinf,[2]; [18],0.109%
same,% Aelast,[2]; [18],0.113%
same,Aeinf,[2]; [18],0.105 mg
same,Aelast,[2]; [18],0.109 mg
same,CLR,[2]; [18],2.83 L/h
same,% Aeinf,[2]; [19],0.104%
same,% Aelast,[2]; [19],0.104%
same,Aeinf,[2]; [19],0.1 mg
same,Aelast,[2]; [19],0.1 mg
same,CLR,[2]; [19],2.24 L/h
same,% Aeinf,[2]; [20],0.034-0.22%
same,% Aelast,[2]; [20],0.019-0.21%
same,Aeinf,[2]; [20],0.033 to 0.21 mg
same,Aelast,[2]; [20],0.019 to 0.21 mg
same,CLR,[2]; [20],0.78 to 7.1 L/h
same,percentage of the dose excreted in urine as metabolite,[2]; patients,0.1%
"Cn1c(CCCC(=O)O)nc2cc(N(CCCl)CCCl)ccc21 [bendamustine, 4-[5-[bis(2-chloroethyl)amino]-1-methylbenzimidazo-2-yl]butanoic acid]",stability of an aqueous solution,[3],significant hydrolytic decomposition
same,patients with at least 1 adverse event considered related to study drug,[4]; intravenous dose,no patients
same,patients with treatment-emergent adverse events,"[4]; intravenous treatment, 100 mg",25%
same,safety and tolerability,"[4]; intravenous, single dose 100 mg",safe and well tolerated
same,deaths during the study,[4]; oral and intravenous,No deaths occurred
same,patients with at least 1 adverse event considered related to study drug,[4]; oral dose,29%
same,patients with treatment-emergent adverse events,"[4]; oral treatment, 110.2 mg",43%
same,safety and tolerability,"[4]; oral, single dose 110.2 mg",safe and well tolerated
same,F,"[1]; Bendamustine HCl 110.2 mg orally vs 100 mg intravenously, arithmetic mean, n=11",69.0† %
same,CL/F,"[1]; bendamustine in plasma, Bendamustine HCl 110.2 mg orally, mean, n=12",31.7 L/h
same,Mean t1/2,"[1]; patients, intravenous administration",approximately 30 minutes
same,"absolute bioavailability (oral versus intravenous ratio of AUCinf), geometric mean","[1]; patients, oral 110.2 mg LFHC (example 2) vs i.v. 100 mg, 90% CI: 55%, 78%",66%
same,tmax,"[1]; patients, oral administration",approximately 0.95 hours
same,"tmax, individual values","[1]; patients, oral administration",15 min and 108 min
same,Mean t1/2,"[1]; patients, oral intake",approximately 30 minutes
same,Cmax after oral dosing as % of Cmax after intravenous dosing,"[1]; patients, 90% CI: 32%, 54%",42%
same,% Aeinf,[2]; [21],2.07%
same,% Aelast,[2]; [21],2.07%
same,Aeinf,[2]; [21],1.874 mg
same,Aelast,[2]; [21],1.88 mg
same,% Aeinf,[2]; [22],1.22%
same,% Aelast,[2]; [22],1.23%
same,Aeinf,[2]; [22],1.11 mg
same,Aelast,[2]; [22],1.12 mg
same,% Aeinf,[2]; [23],0.27-8.8%
same,% Aelast,[2]; [23],0.27-8.8%
same,Aeinf,[2]; [23],0.24 to 8.0 mg
same,Aelast,[2]; [23],0.24 to 8.0 mg
same,CLR,[2]; [23],0.06 to 1.4 L/h
same,% Aeinf,[2]; [24],2.64%
same,% Aelast,[2]; [24],2.66%
same,Aeinf,[2]; [24],2.64 mg
same,Aelast,[2]; [24],2.66 mg
same,CLR,[2]; [24],0.788 L/h
same,% Aeinf,[2]; [25],2.23%
same,% Aelast,[2]; [25],2.23%
same,Aeinf,[2]; [25],2.23 mg
same,Aelast,[2]; [25],2.23 mg
same,% Aeinf,[2]; [26],0.40-5.8%
same,% Aelast,[2]; [26],0.40-5.9%
same,Aeinf,[2]; [26],0.40 to 5.8 mg
same,Aelast,[2]; [26],0.40 to 5.9 mg
same,CLR,[2]; [26],0.18 to 2.0 L/h
same,percentage of the dose excreted in urine unchanged,"[2]; patients, intravenous",2.1%
